Test results published in patent US8772243B2, “Methods for predicting the response to anti-cancer treatment with an agonist of TLR7 or an agonist of TLR8” (Inserm (Institut National de la Sante et de la Recherche …, priority 2008, dated 2014).

Tests used:
A549 cells [1] = experiment: Percentage of dead cells by Trypan blue exclusion; format: cell-based, human; settings: 24 h
Description: (§1) FIG. 4 TLR7 and 8 induce survival of lung tumor cells. (A) A549 cells were unstimulated, stimulated with loxoribine (10 μg/ml), Poly U (10 μg/ml), or Gardiquimod(10μg/ml) and incubated with Alamar blue for 10 days. Reduction of Alamar blue was then determined by spectrophotometry at 570 and 600 nm. The percentage of reduced Alamar blue was calculated as described by the manufacturer. A549 cells were unstimulated or stimulated with loxoribine, Poly U, Gardiquimod, etoposide, or cycloheximide for 24 h. (B) The percentage of dead cells was determined by Trypan blue exclusion. (C) The DNA content was measured by IP staining after RNAse A treatment. The percentages indicate the proportion of subdiploid (G0/G1) and […]. Data represent mean values±SD from 3 independent experiments (*p<0.05; ** p<0.01, Student test). (D) A549 cells were cultured for 6 h in the presence of loxoribine, Poly U, or Gardiquimod, and the expression of Bcl-2 was assayed using Taq Man Low Density Array technology. The ΔCT values for Bcl-2 expression were calculated by subtraction of the CT value obtained for the 18S housekeeping gene. The ΔΔCT values were obtained by subtraction of ΔCT values for unstimulated cells from those obtained for stimulated cells. The fold increase (arbitrary unit) was obtained by 2^−ΔΔCT.

A549 cells [2] = experiment: Cell cycle analysis (propidium iodide staining); format: cell-based, human; settings: PI staining
Description: as §1
A549 cells were cultured in the presence of loxoribine, Poly U, Gardiquimod, etoposide, or cycloheximide. After 48 h, the cells were harvested, washed in cold PBS, and fixed with 2 ml of 70% cold ethanol in PBS for 2 h at 4° C. After centrifugation, the supernatant was removed and the pellet was rinsed with 0.5% PBS Tween. It was then incubated with […] of RNAse A and 50 μg of propidium iodide in PBS. Propidium iodide staining was determined with a FACScalibur cytometer.

[3] = system: 1549, H1355 and SK-MES cells; experiment: Chemoresistance by colony formation assay; format: cell-based, human; settings: concentration added on day 12 of colony formation assay
Description: Alternatively, chemoresistance was assessed by the colony formation assay. In this assay, 1549, H1355 and SK-MES cells were seeded in 6-well plates (500 cells per well) and incubated for 15 days at 37° under 5% CO2. The cells were left unstimulated or stimulated 100 μM Loxoribine or with 10 μg/ml single-stranded polyU RNA (InvivoGen) on days 0, 3, 6 and 9. On day 12, different anti-cancer agents were added at the respective LD50 (cisplatin and carboplatin 100 μM, navelbine 50 μM, doxorubicine 2 nM). On day 15, the wells ware washed with PBS, and stained with 6% (vol/vol) glutaraldehyde, 0.5% (wt/vol) crystal violet in water for 30 minutes. The cells were washed and the colonies of more than 50 cells counted. Cell survival was calculated as follows: number of colonies after chemotherapy/number of cells seeded on day 0×plating efficiency, where the plating efficiency is number of colonies/number of cells seeded.

A549 cells [4] = experiment: Tumor cell proliferation assay (Alamar blue reduction); format: cell-based, human; settings: 10 μg/ml, ten days
Description: as §1
Human lung cancer cell lines were seeded in 96-well plates (800 cells per well) and left unstimulated or were stimulated with loxoribine, Poly U, or Gardiquimod. The proliferation assay was performed with Alamar blue (AbD Serotec, Cergy Pontoise, France) according to the manufacturer's instructions. Briefly, cells were seeded and stimulated with TLR ligands in 100 μl of medium, and 10 μl of Alamar Blue was added. The optical density in each well was determined at 540 nm and 570 nm after 10 days of culture, and the percentage of reduced Alamar blue was determined. The percentage of reduced Alamar blue in unstimulated cells was determined as 100%, and the percentages of the stimulated cells were determined relative to this value.

[5] = system: Bcl-2 expression in A549 cells; experiment: Bcl-2 expression, Taq Man Low Density Array, A549; format: cell-based, human; settings: 6 h, RT-PCR
Description: as §1, with “The fold increase (arbitrary unit) was obtained by 2^−ΔΔCT.” left out
Total RNA was extracted from A549 or SK-MES cells stimulated with loxoribine, Poly U, or Gardiquimod for 6 h or from purified human lung cancer cells using the RNeasy isolation-kit RNA (Qiagen, Courtaboeuf, France). The integrity and the quantity of the RNA were evaluated with a bioanalyzer-2100 (Agilent Technologies). All samples were assessed for gene expression analysis using the Taq Man Low-Density Array angiogenesis and immune panel (Applied Biosystem). […] Quantitative real-time TaqMan-PCR was performed using Low-Density-Arrays and the 7900 robotic real-time PCR-system (Applied-Biosystems). […] Data were analyzed using the SDS Software v2.2 (Applied-Biosystems). The ΔCT values were calculated for each gene by subtraction of the CT value of the 18S housekeeping gene from the CT of the gene of interest. […]

[6] = system: Bcl-2 expression in SCC SK-MES cells; experiment: Bcl-2 expression, SK-MES; format: cell-based, human; settings: data not shown
Description: (§2) Total RNA was extracted from A549 or SK-MES cells stimulated with loxoribine, Poly U, or Gardiquimod for 6 h or from purified human lung cancer cells using the RNeasy isolation-kit RNA (Qiagen, Courtaboeuf, France). The integrity and the quantity of the RNA were evaluated with a bioanalyzer-2100 (Agilent Technologies). All samples were assessed for gene expression analysis using the Taq Man Low-Density Array angiogenesis and immune panel (Applied Biosystem). The RT-PCR experiments were carried-out according to the manufacturer's instructions (Applied-Biosystems). Quantitative real-time TaqMan-PCR was performed using Low-Density-Arrays and the 7900 robotic real-time PCR-system (Applied-Biosystems). The 18S primers and probes were used as internal controls. Data were analyzed using the SDS Software v2.2 (Applied-Biosystems). The ΔCT values were calculated for each gene by subtraction of the CT value of the 18S housekeeping gene from the CT of the gene of interest. The ΔΔCT values were obtained by subtraction of the ΔCT values for unstimulated cells from the […]. The fold increase (arbitrary unit) was obtained by 2^−ΔΔCT.

A549 and SK-MES cells [7] = experiment: Transcriptomic analysis of 182 genes (Taq Man Low Density Array); format: cell-based, human; settings: 6 h stimulation; versus unstimulated cells
Description: FIG. 6 TLR7 and 8 induce regulation of gene transcription. A549 or SK-MES cells were cultured for 6 h in the presence of loxoribine, Poly U, or Gardiquimod. Total RNA was extracted and analyzed for the expression of 182 genes using Taq Man Low Density Array technology. All genes with a value greater than 35 (CT) were excluded from the analysis. The ΔCT values for the expression of all genes were calculated by subtraction of the CT value of the 18S housekeeping gene. The ΔΔCT values were obtained by subtraction of the ΔCT values for unstimulated cells from those obtained for TLR7- or 8-stimulated cells. The fold increase (arbitrary unit) was obtained by 2^−ΔΔCT. Values were then clustered using the Genesis Software.
as §2

A549 and SK-MES cells [8] = experiment: Chemoresistance assay (Trypan blue and Alamar blue); format: cell-based, human; settings: Alamar blue reduction
Description: FIG. 5 TLR7 and 8 induce chemoresistance of lung tumor cells. A549 (A-C) or SK-MES cells (D-F) were cultured with or without loxoribine or Poly U for 48 h, and then left untreated or were treated with cycloheximide, cisplatine, carboplatine, doxorubicine, or Navelbine. After 36 h, the percentage of dead cells was determined by Trypan blue exclusion (A, D) and cell viability was analyzed by the reduction of Alamar blue (B, C, E and F). Data represent mean values±SD from 3 independent experiments (*p<0.05; **p<0.01, ***p<0.001, Student test).
A549 and SK-MES cells were seeded in 96-well plates (1000 cells per well) and left unstimulated or were stimulated with loxoribine, Poly U, or Gardiquimod for 48 h. Cisplatine, carboplatine, doxorubicine, Navelbine, or cycloheximide was then added for an additional 36 h. The optical density in each well was determined 24 h after the addition of Alamar blue at 540 nm and 570 nm. Alternatively, viable and dead cells were counted using Trypan blue.

A549 cells [9] = experiment: A549 xenograft in NOD/SCID mice; format: in vivo; settings: for factor of reduction of tumor size by chemotherapy: cisplatine 2 mg/kg/injection i.p.
Description: Mice were anesthetized by intra-peritoneal injection of a solution containing 3.2 mg of ketamine (Virbac) and 0.16 mg of xylasine (Rompum 2%, Bayer Healthcare) in 80 μl of PBS (Gibco). Five days prior to experimentation, A549 cells were pre-stimulated with 100 μM Loxoribine (Invivogen) or left unstimulated. For each condition 5×10^6 cells were diluted in 250 μl PBS and injected subcutaneously to 5 mice per group and were re-stimulated either with 50 μl PBS or with 100 nmol of Loxoribine diluted in 50 μl PBS. Stimulating injections into the tumor site were carried out on the day the cells were injected and then on days 3, 6 and 9. The mice then received either 120 μA PBS, or a chemotherapy of cisplatine (2 mg/kg/injection diluted in 120 μl PBS) on days 18, 20 and 22, both intra-peritoneal. The volume of the tumor was determined by measuring the length (Lg), the width (Wi) of the tumor and by calculating (Lg*(Wi*Wi)/2.

[10] = system: IκBα (NF-κB activation) in A549 cells; experiment: Western blot of IκBα phosphorylation and degradation (NF-κB activation) in A549 cells; format: cell-based, human; settings: TNF-α 10 ng/ml
Description: FIG. 3 TLR7 and TLR8 lead to IκBα phosphorylation, but not degradation. A549 cells were untreated or treated with TNF-α (10 ng/ml) (A, B), loxoribine (10 μg/ml) (C, D), or Poly U (10 μg/ml) (E, F) for the indicated periods of time. The cell lysates were analyzed by immunoblot with anti-phospho-specific IκBα, anti-IκBα and anti-actin antibodies (A, C, E). Quantification of the bands was realized using Image J software (B, D, F). Histograms represent the intensity of each band observed in the blots at the indicated time point and are expressed in arbitrary units normalized to actin intensity (relative intensity) both for phospho-IκBα and IκBα. Results are representative of three independent experiments.
A549 cells (1.10^6 cells) were starved for 4 hours in medium containing 2% FCS, and then stimulated with loxoribine, PolyU, or TNFα (10 ng/ml) for different periods of time as indicated. Cells were lysed in 50 mM Tris-HCl, pH 7.5, 150 mM NaCl, 2 mM EDTA, 0.5% triton X100, 2 mM Na3VO4, 10 mM NaF, and 10 mM sodium pyrophosphate supplemented with a complete protease inhibitor cocktail (Boehringer, Paris, France). Protein contents in the cell lysates were quantified using the quick start Bradford protein assay kit (Biorad, Marnes-La-Coquette, France) to ensure that all samples contained similar amounts of protein. Proteins (30 μg) were resolved in 10% Tris-glycine polyacrylamide gels (Invitrogen, Cergy Pontoise, France) and transferred to PVDF immobilon-P membranes (Millipore, Molsheim, France). Blots were probed with monoclonal antibody against phospho-IκBα (Cell Signaling Technology, Danvers, USA), total IκBα, and actin (Santa Cruz, Le Perray en Yvelines, France).
In order to determine if the TLR7 and 8 expressed by lung tumor cell lines were able to induce intracellular signaling pathways, we studied NF-κB activation in response to stimulation with TNFα, loxoribine (homodimeric TLR7 ligand), or Poly U (homodimeric TLR8 ligand). […] In contrast TLR7 or 8 stimulation led to atypical NF-κB activation. […] Furthermore, we also observed that the kinetics of IκBα phosphorylation were dependent on the stimulus. On the one hand, TNFα stimulation induced two waves of IκBα phosphorylation; the first one after ten minutes was associated with IκBα degradation, and the second one after sixty minutes was not associated with IκBα degradation. On the other hand, we observed that TLR stimulation induced only a phosphorylation of IκBα, with a maximum phosphorylation obtained after thirty minutes without degradation of IκBα.

## COc1cc([C@@H]2c3cc4c(cc3[C@@H](O[C@@H]3O[C@@H]5CO[C@@H](C)O[C@H]5[C@H](O)[C@H]3O)[C@H]3COC(=O)[C@H]23)OCO4)cc(OC)c1O [etoposide]
A549 cells [1]
  increase in the percentage of dead cells (positive controls): 2.5 fold
A549 cells [2]
  proportion of cells in G0/G1 or G2/M phases versus unstimulated cells: significant reduction in the percentage of cells in G0/G1 or G2/M

## CCC1=C[C@@H]2CN(C1)Cc1c([nH]c3ccccc13)[C@@](C(=O)OC)(c1cc3c(cc1OC)N(C)[C@H]1[C@@](O)(C(=O)OC)[C@H](OC(C)=O)[C@]4(CC)C=CCN5CC[C@]31[C@@H]54)C2 [Navelbine]
[3]
  LD50: 50 µM

## C[C@@H]1C[C@@H]([C@H](O)CC2CC(=O)NC(=O)C2)C(=O)[C@@H](C)C1 [cycloheximide]
A549 cells [1]
  increase in the percentage of dead cells (positive controls): 2.5 fold
A549 cells [2]
  proportion of cells in G0/G1 or G2/M phases versus unstimulated cells: significant reduction in the percentage of cells in G0/G1 or G2/M

## CCNCc1nc2c(N)nc3ccccc3c2n1CC(C)(C)O [Gardiquimod]
A549 cells [4]
  increase in reduction of Alamar blue versus unstimulated cells: 20%
A549 cells [2]
  proportion of cells in G0/G1 or G2/M phases versus unstimulated cells: did not observe any significant differences
[5]
  Bcl-2 expression compared to untreated cells: increased expression of Bcl-2
[6]
  increase in Bcl-2 expression: 100 fold
A549 and SK-MES cells [7]
  genes down-regulated in both SK-MES and A549 cells: Prolactin (PRL), CD80, Fibronectin-1 (FN-1), A Disintegrin And Metalloproteinase with ThromboSpondin motif 1 (ADAMTS1), and Serpin Peptidase Inhibitor Clade C1 (SERPINC1)
  genes up-regulated in A549 cells, but down-regulated in SK-MES cells: Angiopoietin like 3 (ANGPTL3), Serpin Peptidase Inhibitor Clade F1 (SERPINF1), and Angiopoietin 1 (ANGPT1)
  genes up-regulated in SK-MES, but down-regulated in A549 cells: ANGPTL1, Platelet Factor 4 (PF4), and fms related tyrosine kinase 4 (FLT4)
  genes up-regulated in both SK-MES and A549 cells: Bcl-2, CCR4, and Vasohibin-1 (VASH-1)

## [NH2][Pt]([NH2])([Cl])[Cl] [cisplatine]
A549 and SK-MES cells [8]
  reduction in cell viability by chemotherapy, comparison of drugs: more potent inducers of cell death
[3]
  LD50: 100 µM
A549 cells [9]; Loxoribine-stimulated group
  factor of reduction of tumor size by chemotherapy: 1.6 factor
A549 cells [9]; NS group
  factor of reduction of tumor size by chemotherapy: 3 factor
A549 cells [9]; NS group, cisplatine 2 mg/kg/injection i.p. days 18, 20, 22
  tumor volume seven weeks after injection of tumor cells: 0.6 cm^3

## COc1cccc2c1C(=O)c1c(O)c3c(c(O)c1C2=O)C[C@@](O)(C(=O)CO)C[C@@H]3O[C@H]1C[C@H](N)[C@H](O)[C@H](C)O1 [doxorubicine]
[3]
  LD50: 0.002 µM

## [NH2][Pt]1([NH2])[O]C(=O)C2(CCC2)C(=O)[O]1 [carboplatine]
A549 and SK-MES cells [8]
  reduction in cell viability by chemotherapy, comparison of drugs: more potent inducers of cell death
[3]
  LD50: 100 µM

## TNFα
[10]
  first wave of IκBα phosphorylation, associated with IκBα degradation: ten
  second wave of IκBα phosphorylation, not associated with IκBα degradation: sixty
[10]; loxoribine or Poly U 10 μg/ml
  IκBα degradation / type of NF-κB activation: IκBα phosphorylation and degradation
